Reference: patent publication US7524861B2, “Process for the preparation of a hydrate of an anthranilic acid derivative” (priority 2002, dated 2009)
Marks after values point to notes of the source that are not given here.

How the values were obtained:
[1] = Hygroscopicity study (weight change on storage at 33-95% RH, KF water content); format: physicochemical; details: for KF moisture result: hygroscopicity sample
Description: (§1) The hexahydrate produced in Example 1 was analysed as follows. Four desiccator cabinets were prepared to contain open dishes of the following saturated salt solutions, to achieve the following approximate relative humidities (RH).
(§2) Dehydration of samples was carried out by storing them over silica gel or over P2O5 at reduced pressure (65 mm Hg). All studies were performed at ambient laboratory temperature (15-22° C.).
Pre-equilibrated weighing bottles and lids (stored at 33% RH for a minimum of 24 hours) were weighed on a tared 5-figure analytical balance, and the weight recorded. To these the hydrate was added (approx 2 g), the weight recorded and the difference (the accurate weight of the drug substance) calculated. The weighing bottles, lids and contents were then transferred to the 33% RH cabinet, with the lids removed and placed to the side.
At appropriate times, the lids were replaced and the weight measured. After weighing, the samples were gently agitated and placed back in the 33% RH cabinet, again with the lid removed and placed to one side. This process continued until all % weight changes for all samples were seen to have reached stable end-points. […]. When stable end-points were observed, the samples were stepped up to the next % RH cabinet by transferring the drug to pre-equilibrated weighing bottles, recording their weight as before. Samples were stored progressively at 33% RH, 60% RH, 75% RH and 95% RH.
(§3) Water contents were measured by coulometric KF (Karl Fischer) titration.

[2] = Dehydration/re-hydration study (weight change over desiccants, then 33-95% RH, KF water content); format: physicochemical
Description: as §1, §2
During this study, samples were dispensed to pre-equilibrated weighing bottles as in the hygroscopicity study, and were then stored over silica gel without reduced pressure, then over […] under reduced pressure (65 mm Hg) to dehydrate the hydrate. Once a stable weight was achieved over P2O5, samples were re-hydrated by storing them at 33% RH to 95% RH, in parallel with the hygroscopicity study as described above.
as §3

Compound: COc1cc2c(cc1OC)CN(CCc1ccc(NC(=O)c3cc(OC)c(OC)cc3NC(=O)c3cnc4ccccc4c3)cc1)CC2 [Example 1, Quinoline-3-carboxylic acid (2-{4-[2-(6,7-dimethoxy-3,4-dihydro-1H-isoquinolin-2-yl)-ethyl]-phenylcarbamoyl}-4,5-dimethoxy-phenyl)-amide]
- Cumulative % change Hygroscopicity ([1]; 33% RH, tabulated time 1147.25 h (actual: minus 1144 h)): −0.17* %
- Cumulative % change Hygroscopicity ([1]; 33% RH, tabulated time 1150.75 h (actual: minus 1144 h)): −0.22%
- Cumulative % change Hygroscopicity ([1]; 33% RH, tabulated time 1168.00 h (actual: minus 1144 h)): −0.47%
- Cumulative % change Hygroscopicity ([1]; 33% RH, tabulated time 1240.75 h (actual: minus 1144 h)): −0.37%
- Cumulative % change Hygroscopicity ([1]; 33% RH, tabulated time 1268.50 h (actual: minus 1144 h)): −0.42%
- Cumulative % change Hygroscopicity ([1]; 33% RH, tabulated time 1312.50 h (actual: minus 1144 h)): −0.49%
- Cumulative % change Hygroscopicity ([1]; 33% RH, tabulated time 1431.25 h (actual: minus 1144 h)): −0.63%
- Cumulative % change Hygroscopicity ([1]; 33% RH, tabulated time 1502.25 h (actual: minus 1144 h)): −0.51%
- Cumulative % change Hygroscopicity ([1]; 33% RH, tabulated time 1672.50 h (actual: minus 1144 h)): −0.70%
- Cumulative % change Hygroscopicity ([1]; 33% RH, tabulated time 1741.50 h (actual: minus 1144 h)): −0.76%
- hygroscopicity on storage at progressively higher RH values ([1]; 33% to 95% RH, ambient temperature): no evidence of hygroscopicity
- Cumulative % change Hygroscopicity ([1]; 60% RH, tabulated time 1744.50 h (actual: minus 1144 h)): 0.12%
- Cumulative % change Hygroscopicity ([1]; 60% RH, tabulated time 1746.50 h (actual: minus 1144 h)): 0.13%
- Cumulative % change Hygroscopicity ([1]; 60% RH, tabulated time 1762.50 h (actual: minus 1144 h)): 0.08%
- Cumulative % change Hygroscopicity ([1]; 60% RH, tabulated time 1835.75 h (actual: minus 1144 h)): 0.27%
- Cumulative % change Hygroscopicity ([1]; 60% RH, tabulated time 1932.25 h (actual: minus 1144 h)): 0.37%
- Cumulative % change Hygroscopicity ([1]; 60% RH, tabulated time 2101.50 h (actual: minus 1144 h)): 0.56%
- Cumulative % change Hygroscopicity ([1]; 60% RH, tabulated time 2147.75 h (actual: minus 1144 h)): 0.34%
- Cumulative % change Hygroscopicity ([1]; 60% RH, tabulated time 2273.75 h (actual: minus 1144 h)): 0.34%
- Cumulative % change Hygroscopicity ([1]; 60% RH, tabulated time 2410.25 h (actual: minus 1144 h)): 0.27%
- Cumulative % change Hygroscopicity ([1]; 75% RH, tabulated time 2417.25 h (actual: minus 1144 h)): 0.87%
- Cumulative % change Hygroscopicity ([1]; 75% RH, tabulated time 2434.25 h (actual: minus 1144 h)): 0.88%
- Cumulative % change Hygroscopicity ([1]; 75% RH, tabulated time 2441.25 h (actual: minus 1144 h)): 0.88%
- Cumulative % change Hygroscopicity ([1]; 75% RH, tabulated time 2482.00 h (actual: minus 1144 h)): 0.92%
- Cumulative % change Hygroscopicity ([1]; 75% RH, tabulated time 2577.75 h (actual: minus 1144 h)): 1.00%
- Cumulative % change Hygroscopicity ([1]; 75% RH, tabulated time 2609.75 h (actual: minus 1144 h)): 0.96%
- Cumulative % change Hygroscopicity ([1]; 75% RH, tabulated time 2681.25 h (actual: minus 1144 h)): 1.08%
- Cumulative % change Hygroscopicity ([1]; 75% RH, tabulated time 2770.25 h (actual: minus 1144 h)): 1.01%
- Cumulative % change Hygroscopicity ([1]; 75% RH, tabulated time 2817.75 h (actual: minus 1144 h)): 1.09%
- Cumulative % change Hygroscopicity ([1]; 95% RH, tabulated time 2825.25 h (actual: minus 1144 h)): 1.85%
- Cumulative % change Hygroscopicity ([1]; 95% RH, tabulated time 2841.75 h (actual: minus 1144 h)): 2.23%
- Cumulative % change Hygroscopicity ([1]; 95% RH, tabulated time 2915.75 h (actual: minus 1144 h)): 2.57%
- Cumulative % change Hygroscopicity ([1]; 95% RH, tabulated time 2937.75 h (actual: minus 1144 h)): 2.71%
- Cumulative % change Hygroscopicity ([1]; 95% RH, tabulated time 2991.25 h (actual: minus 1144 h)): 2.82%
- Cumulative % change Hygroscopicity ([1]; 95% RH, tabulated time 3082.25 h (actual: minus 1144 h)): 3.28%
- Cumulative % change Hygroscopicity ([1]; 95% RH, tabulated time 3130.00 h (actual: minus 1144 h)): 3.51%
- Cumulative % change Hygroscopicity ([1]; 95% RH, tabulated time 3182.25 h (actual: minus 1144 h)): 3.39%
- Cumulative % change Hygroscopicity ([1]; 95% RH, tabulated time 3252.25 h (actual: minus 1144 h)): 3.62%
- Cumulative % change Hygroscopicity ([1]; 95% RH, tabulated time 3350.25 h (actual: minus 1144 h)): 3.65%
- Cumulative % change Hygroscopicity ([1]; 95% RH, tabulated time 3422.25 h (actual: minus 1144 h)): 3.64%
- Cumulative % change Hygroscopicity ([1]; 95% RH, tabulated time 3636.25 h (actual: minus 1144 h)): 4.12%
- Cumulative % change Hygroscopicity ([1]; 95% RH, tabulated time 4332.75 h (actual: minus 1144 h)): 4.45%
- weight increase between storage at 33% RH and end of storage at 75% RH ([1]; both re-hydrated and untreated samples): less than 2 % (absolute)
- KF moisture result ([1]; 95% RH, tabulated time 4332.75 h (end)): (15.35) % w/w
- KF moisture result ([1]; printed in first 33% RH row (start of study)): (12.45) % w/w
- Cumulative % change Dehydration/Rehydration ([2]; 60% RH, cumulative time 1744.50 h): 0.19%
- Cumulative % change Dehydration/Rehydration ([2]; 60% RH, cumulative time 1746.50 h): 0.31%
- Cumulative % change Dehydration/Rehydration ([2]; 60% RH, cumulative time 1762.50 h): 0.30%
- Cumulative % change Dehydration/Rehydration ([2]; 60% RH, cumulative time 1835.75 h): 0.54%
- Cumulative % change Dehydration/Rehydration ([2]; 60% RH, cumulative time 1932.25 h): 0.64%
- Cumulative % change Dehydration/Rehydration ([2]; 60% RH, cumulative time 2101.50 h): 0.86%
- Cumulative % change Dehydration/Rehydration ([2]; 60% RH, cumulative time 2147.75 h): 0.62%
- Cumulative % change Dehydration/Rehydration ([2]; 60% RH, cumulative time 2273.75 h): 0.61%
- Cumulative % change Dehydration/Rehydration ([2]; 60% RH, cumulative time 2410.25 h): 0.51%
- Cumulative % change Dehydration/Rehydration ([2]; 75% RH, cumulative time 2417.25 h): 1.18%
- Cumulative % change Dehydration/Rehydration ([2]; 75% RH, cumulative time 2434.25 h): 1.21%
